Source: ChEMBL document CHEMBL6103537 (J Med Chem, 2025)
Calls of active or inactive are those of the source. No cut-off for these calls is given here.

Assays:
[1] = Stability in monkey plasma assessed as half life measured upto 60 mins by LC-MS/MS analysis; format: ADME, cell-free, Macaca mulatta; conditions: rhesus monkey
[2] = target: T1, Protein cereblon/Signal transducer and activator of transcription 6 (Homo sapiens, UniProt P42226+Q96SW2); assay: PROTAC activity at STAT6/CRBN in human PBMC cells assessed as reduction in STAT6 level at 5 uM incubated for 18 hrs by Western blot analysis relative to control; format: cell-based; parameters: scale not given: the % may be the effect or the level left
[3] = Metabolic stability in monkey liver microsome assessed as parent compound remaining measured at 45 mins in presence of NADPH by LC-MS/MS analysis; format: ADME, Macaca mulatta; conditions: rhesus monkey, liver microsomes, read-out: Stability
[4] = Metabolic stability in dog liver microsome assessed as parent compound remaining measured at 45 mins in presence of NADPH by LC-MS/MS analysis; format: ADME, Canis lupus familiaris; conditions: liver microsomes, read-out: Stability
[5] = target: T1, Protein cereblon/Signal transducer and activator of transcription 6; assay: PROTAC activity at STAT6/CRBN in human MV4-11 cells assessed as reduction in STAT6 level incubated for 12 hrs by Western blot analysis; format: cell-based
[6] = Stability in human plasma assessed as parent compound remaining measured at 60 mins by LC-MS/MS analysis; format: ADME, cell-free; conditions: read-out: Stability
[7] = Stability in dog plasma assessed as parent compound remaining measured at 120 mins by LC-MS/MS analysis; format: ADME, cell-free, Canis lupus familiaris; conditions: read-out: Stability
[8] = Metabolic stability in dog liver microsome assessed as parent compound remaining measured at 5 mins in presence of NADPH by LC-MS/MS analysis; format: ADME, Canis lupus familiaris; conditions: liver microsomes, read-out: Stability
[9] = Metabolic stability in monkey liver microsome assessed as parent compound remaining measured at 5 mins in presence of NADPH by LC-MS/MS analysis; format: ADME, Macaca mulatta; conditions: rhesus monkey, liver microsomes, read-out: Stability
[10] = Stability in dog plasma assessed as parent compound remaining measured at 15 mins by LC-MS/MS analysis; format: ADME, cell-free, Canis lupus familiaris; conditions: read-out: Stability
[11] = Metabolic stability in mouse liver microsome assessed as parent compound remaining measured at 30 mins in presence of NADPH by LC-MS/MS analysis; format: ADME; conditions: liver microsomes, read-out: Stability
[12] = Metabolic stability in monkey liver microsome assessed as half life measured upto 60 mins in presence of NADPH by LC-MS/MS analysis; format: ADME, Macaca mulatta; conditions: rhesus monkey, liver microsomes
[13] = target: Protein cereblon/Signal transducer and activator of transcription 4 (Homo sapiens) (UniProt Q96SW2+Q14765); assay: PROTAC activity at STAT4/CRBN in human PBMC cells assessed as reduction in STAT4 level at 10 uM incubated for 18 hrs by Western blot analysis relative to control; format: cell-based
[14] = target: T2, Protein cereblon/Signal transducer and activator of transcription 2 (Homo sapiens) (UniProt Q96SW2+P52630); assay: PROTAC activity at STAT2/CRBN in human L-1236 cells assessed as reduction in STAT2 level at 10 uM incubated for 24 hrs by Western blot analysis; format: cell-based
[15] = target: Protein cereblon/Signal transducer and activator of transcription 3 (Homo sapiens) (UniProt P40763+Q96SW2); assay: PROTAC activity at STAT3/CRBN in human L-1236 cells assessed as reduction in STAT3 level at 10 uM incubated for 24 hrs by Western blot analysis; format: cell-based
[16] = target: T1, Protein cereblon/Signal transducer and activator of transcription 6; assay: PROTAC activity at STAT6/CRBN in human MV4-11 cells assessed as reduction in STAT6 level at 2 uM measured upto 1200 mins in presence of AK-068 by HiBiT bioluminescence assay; format: cell-based
PBMC [17] = assay: Downregulation of STAT3 level in human PBMC cells at 5 uM incubated for 18 hrs by Western blot analysis relative to control; format: functional, cell-based
[18] = target: Protein cereblon/Zinc finger protein Helios (Homo sapiens) (UniProt Q96SW2+Q9UKS7); assay: PROTAC activity at CRBN/IKZF2 in human Jurkat cells assessed as degradation of IKZF2 protein at 0.01 to 10 uM incubated for 20 hrs by Western blotting analysis; format: cell-based; conditions: dose 0.01-10 µM
[19] = Stability in rat plasma assessed as parent compound remaining measured at 30 mins by LC-MS/MS analysis; format: ADME, cell-free; conditions: read-out: Stability
[20] = Metabolic stability in human liver microsome assessed as half life measured upto 60 mins in presence of NADPH by LC-MS/MS analysis; format: ADME; conditions: liver microsomes
[21] = Metabolic stability in rat liver microsome assessed as half life measured upto 60 mins in presence of NADPH by LC-MS/MS analysis; format: ADME; conditions: liver microsomes
[22] = target: T2, Protein cereblon/Signal transducer and activator of transcription 2 (Homo sapiens); assay: PROTAC activity at STAT2/CRBN in human MV4-11 cells assessed as reduction in STAT2 level at 2 uM incubated for 12 hrs by Western blot analysis relative to control; format: cell-based
[23] = Stability in human plasma assessed as parent compound remaining measured at 30 mins by LC-MS/MS analysis; format: ADME, cell-free; conditions: read-out: Stability
[24] = Metabolic stability in human liver microsome assessed as parent compound remaining measured at 30 mins in presence of NADPH by LC-MS/MS analysis; format: ADME; conditions: liver microsomes, read-out: Stability
[25] = target: T1, Protein cereblon/Signal transducer and activator of transcription 6; assay: PROTAC activity at STAT6/CRBN in human PBMC cells assessed as reduction in STAT6 level at 10 uM incubated for 18 hrs by Western blot analysis relative to control; format: cell-based
PBMC [26] = assay: Downregulation of STAT1 level in human PBMC cells at 5 uM incubated for 18 hrs by Western blot analysis relative to control; format: functional, cell-based
[27] = target: Cereblon/Ikaros (Homo sapiens) (UniProt Q96SW2+Q13422); assay: PROTAC activity at CRBN/IKZF1 in human Jurkat cells assessed as degradation of IKZF1 protein at 0.01 to 10 uM incubated for 20 hrs by Western blotting analysis; format: cell-based; conditions: dose 0.01-10 µM
[28] = Stability in mouse plasma assessed as parent compound remaining measured at 120 mins by LC-MS/MS analysis; format: ADME, cell-free; conditions: read-out: Stability
[29] = Stability in mouse plasma assessed as parent compound remaining measured at 30 mins by LC-MS/MS analysis; format: ADME, cell-free; conditions: read-out: Stability
[30] = target: Protein cereblon/Signal transducer and activator of transcription 5A/Signal transducer and activator of transcription 5B (Homo sapiens) (UniProt P42229+P51692+Q96SW2); assay: PROTAC activity at STAT5/CRBN in human PBMC cells assessed as reduction in STAT5 level at 10 uM incubated for 18 hrs by Western blot analysis relative to control; format: cell-based
[31] = target: T1, Protein cereblon/Signal transducer and activator of transcription 6; assay: PROTAC activity at STAT6 at Y641 residue/CRBN in human L-1236 cells assessed as reduction in STAT6 level at 10 uM incubated for 24 hrs by Western blot analysis; format: cell-based
[32] = target: Protein cereblon/Signal transducer and transcription activator 6 (Mus musculus) (UniProt P52633+Q8C7D2); assay: In vivo PROTAC activity at STAT6/CRBN in BALB/c mouse assessed as reduction in STAT6 level in liver at 200 mg/kg, ip measured at 2 to 24 hrs by Western blot analysis; format: functional, organism-based; parameters: scale not given: the % may be the effect or the level left; conditions: time 2-24 hrs
[33] = Metabolic stability in mouse liver microsome assessed as half life measured upto 60 mins in presence of NADPH by LC-MS/MS analysis; format: ADME; conditions: liver microsomes
[34] = Downregulation of AKR7A3 level in human PBMC cells at 5 uM incubated for 18 hrs by Western blot analysis relative to control; format: functional
[35] = Metabolic stability in dog liver microsome assessed as parent compound remaining measured at 15 mins in presence of NADPH by LC-MS/MS analysis; format: ADME, Canis lupus familiaris; conditions: liver microsomes, read-out: Stability

**Q.** Which results are given for `CC(C)(C)[C@H](NC(=O)c1cc2cc(C(F)(F)P(=O)(O)O)ccc2s1)C(=O)N1C[C@@H](OCCCCCC#Cc2cccc3c2CN(C2CCC(=O)NC2=O)C3=O)C[C@H]1C(=O)N1CCO[C@H](c2ccccc2)C1` (stereo not given in full)?
**A.** half-life [1]: > 120 min; Activity [2]: 79%; remaining at 0.75 h [3]: 61%; remaining at 0.75 h [4]: 93%; DC50 [5]: 1 nM; remaining at 1 h [6]: 94%; remaining at 2 h [7]: 67%; remaining at 5 min [8]: 97%; remaining at 5 min [9]: 95%; remaining at 0.25 h [10]: 87%; remaining at 0.5 h [11]: 94%; half-life [12]: 63 min; Activity [13]: No effect; Activity [14]: No effect; Activity [15]: No effect; Activity [16]: Active; Activity (PBMC [17]): inactive; Activity [18]: No effect; remaining at 0.5 h [19]: 85%; half-life [20]: > 120 min; half-life [21]: > 120 min; Emax [22]: < 40%; remaining at 0.5 h [23]: 82%; remaining at 0.5 h [24]: 92%; Emax [25]: > 90%; Activity (PBMC [26]): inactive; Activity [27]: Active; remaining at 2 h [28]: 79%; remaining at 0.5 h [29]: 96%; Activity [30]: No effect; Activity [31]: No effect; Activity [32]: > 90%; half-life [33]: > 120 min; Activity [34]: 51%; remaining at 0.25 h [35]: 97%
